Experiments:
Type in all cases: in vivo
[1] = tested on: Plutella xylostella (Diamond back moth); test: Plutella xylostella (Diamond back moth) larval mortality, artificial diet in 24-well MTP; conditions: 144 h, application rate 200 ppm (concentration in well 18 ppm), L2 larvae, larval mortality after 6 days
[2] = tested on: Diabrotica balteata (Corn root worm); test: Diabrotica balteata (Corn root worm) larval mortality, artificial diet in 24-well MTP; conditions: 120 h, application rate 200 ppm (concentration in well 18 ppm), L2 larvae, larval mortality after 5 days
[3] = tested on: Spodoptera littoralis (Egyptian cotton leafworm); test: Spodoptera littoralis (Egyptian cotton leafworm) mortality, sprayed cotton leaf discs; conditions: foliar, 72 h, 200 ppm spray on cotton leaf discs, L1 larvae, mortality 3 DAT
[4] = tested on: Myzus persicae (Green peach aphid); test: Myzus persicae (Green peach aphid) mortality, sprayed sunflower leaf discs; conditions: foliar, 144 h, 200 ppm spray on sunflower leaf discs, mixed ages, mortality 6 DAT
[5] = tested on: Tetranychus urticae (Two-spotted spider mite); test: Tetranychus urticae (Two-spotted spider mite) mortality, sprayed bean leaf discs; conditions: foliar, 192 h, 200 ppm spray on bean leaf discs, mixed ages, egg, larval and adult mortality after 8 days
[6] = tested on: Myzus persicae (Green peach aphid); test: Myzus persicae (Green peach aphid) mortality, test compounds mixed with Sucrose solution under Parafilm; conditions: 120 h, 12.5 ppm in Sucrose solution, infested pea seedlings on Parafilm, mortality 5 days after infestation
[7] = tested on: Thrips tabaci (Onion thrips); test: Thrips tabaci (Onion thrips) mortality, sprayed sunflower leaf discs; conditions: foliar, 168 h, 200 ppm spray on sunflower leaf discs, mixed ages, mortality after 7 days

CCN(C(=O)c1ccncc1)c1cccc(C(=O)Nc2c(Br)cc(C(F)(C(F)(F)F)C(F)(F)F)cc2OC(F)F)c1OC [Compound 4]
≥ 80%: pest or weed control at 200 ppm [1] | pest or weed control at 200 ppm [2] | pest or weed control at 200 ppm [3] | pest or weed control at 200 ppm [4] | pest or weed control at 200 ppm [5] | pest or weed control at 12.5 ppm [6] | pest or weed control at 200 ppm [7]

N#Cc1ccc(C(=O)Nc2cccc(C(=O)Nc3c(Br)cc(C(F)(C(F)(F)F)C(F)(F)F)cc3OC(F)F)c2F)cc1 [Compound 5]
≥ 80%: pest or weed control at 200 ppm [1] | pest or weed control at 200 ppm [2] | pest or weed control at 200 ppm [3] | pest or weed control at 200 ppm [4] | pest or weed control at 200 ppm [5] | pest or weed control at 12.5 ppm [6] | pest or weed control at 200 ppm [7]

COc1c(NC(=O)c2ccc(C#N)cc2)cccc1C(=O)Nc1c(Br)cc(C(F)(C(F)(F)F)C(F)(F)F)cc1OC(F)F [Compound 6]
≥ 80%: pest or weed control at 200 ppm [1] | pest or weed control at 200 ppm [2] | pest or weed control at 200 ppm [3] | pest or weed control at 200 ppm [4] | pest or weed control at 200 ppm [5] | pest or weed control at 12.5 ppm [6] | pest or weed control at 200 ppm [7]

CCN(C(=O)c1ccc(C#N)cc1)c1cccc(C(=O)Nc2c(Br)cc(C(F)(C(F)(F)F)C(F)(F)F)cc2OC(F)F)c1OC [Compound 9]
≥ 80%: pest or weed control at 200 ppm [1] | pest or weed control at 200 ppm [2] | pest or weed control at 200 ppm [3] | pest or weed control at 200 ppm [4] | pest or weed control at 200 ppm [5] | pest or weed control at 12.5 ppm [6] | pest or weed control at 200 ppm [7]

CCN(C(=O)c1ccc(C#N)cc1)c1cccc(C(=O)Nc2c(Br)cc(C(F)(C(F)(F)F)C(F)(F)F)cc2OC(F)F)c1F [Compound 10]
≥ 80%: pest or weed control at 200 ppm [1] | pest or weed control at 200 ppm [2] | pest or weed control at 200 ppm [3] | pest or weed control at 200 ppm [4] | pest or weed control at 200 ppm [5] | pest or weed control at 12.5 ppm [6] | pest or weed control at 200 ppm [7]

CCN(C(=O)c1cc[n+]([O-])cc1)c1cccc(C(=O)Nc2c(Br)cc(C(F)(C(F)(F)F)C(F)(F)F)cc2OC(F)F)c1F [Compound 11, N-[3-[[2-bromo-6-(difluoromethoxy)-4-[1,2,2,2-tetrafluoro-1-(trifluoromethyl)ethyl]phenyl]carbamoyl]-2-fluoro-phenyl]-N-ethyl-1-oxido-pyridin-1-ium-4-carboxamide]
≥ 80%: pest or weed control at 200 ppm [1] | pest or weed control at 200 ppm [2] | pest or weed control at 200 ppm [3] | pest or weed control at 200 ppm [4] | pest or weed control at 200 ppm [5] | pest or weed control at 12.5 ppm [6] | pest or weed control at 200 ppm [7]

CCN(C(=O)c1cc[n+]([O-])cc1)c1cccc(C(=O)Nc2c(Br)cc(C(F)(C(F)(F)F)C(F)(F)F)cc2OC(F)F)c1OC [Compound 12]
≥ 80%: pest or weed control at 200 ppm [1] | pest or weed control at 200 ppm [2] | pest or weed control at 200 ppm [3] | pest or weed control at 200 ppm [4] | pest or weed control at 200 ppm [5] | pest or weed control at 12.5 ppm [6] | pest or weed control at 200 ppm [7]

N#Cc1ccc(C(=O)Nc2cccc(C(=O)Nc3c(Cl)cc(C(F)(C(F)(F)F)C(F)(F)F)cc3OC(F)F)c2F)cc1 [Compound 13]
≥ 80%: pest or weed control at 200 ppm [1] | pest or weed control at 200 ppm [2] | pest or weed control at 200 ppm [3] | pest or weed control at 200 ppm [4] | pest or weed control at 200 ppm [5] | pest or weed control at 12.5 ppm [6] | pest or weed control at 200 ppm [7]

COc1c(NC(=O)c2ccc(C#N)cc2)cccc1C(=O)Nc1c(Cl)cc(C(F)(C(F)(F)F)C(F)(F)F)cc1OC(F)F [Compound 14, N-[2-chloro-6-(difluoromethoxy)-4-[1,2,2,2-tetrafluoro-1-(trifluoromethyl)ethyl]phenyl]-3-[(4-cyanobenzoyl)amino]-2-methoxy-benzamide]
≥ 80%: pest or weed control at 200 ppm [1] | pest or weed control at 200 ppm [2] | pest or weed control at 200 ppm [3] | pest or weed control at 200 ppm [4] | pest or weed control at 200 ppm [5] | pest or weed control at 12.5 ppm [6] | pest or weed control at 200 ppm [7]

O=C(Nc1cccc(C(=O)Nc2c(Cl)cc(C(F)(C(F)(F)F)C(F)(F)F)cc2OC(F)F)c1F)c1ccncc1 [Compound 15]
≥ 80%: pest or weed control at 200 ppm [1] | pest or weed control at 200 ppm [2] | pest or weed control at 200 ppm [3] | pest or weed control at 200 ppm [4] | pest or weed control at 200 ppm [5] | pest or weed control at 12.5 ppm [6] | pest or weed control at 200 ppm [7]

COc1c(NC(=O)c2ccncc2)cccc1C(=O)Nc1c(Cl)cc(C(F)(C(F)(F)F)C(F)(F)F)cc1OC(F)F [Compound 16]
≥ 80%: pest or weed control at 200 ppm [1] | pest or weed control at 200 ppm [2] | pest or weed control at 200 ppm [3] | pest or weed control at 200 ppm [4] | pest or weed control at 200 ppm [5] | pest or weed control at 12.5 ppm [6] | pest or weed control at 200 ppm [7]

CCN(C(=O)c1ccc(C#N)cc1)c1cccc(C(=O)Nc2c(Cl)cc(C(F)(C(F)(F)F)C(F)(F)F)cc2OC(F)F)c1F [Compound 17]
≥ 80%: pest or weed control at 200 ppm [1] | pest or weed control at 200 ppm [2] | pest or weed control at 200 ppm [3] | pest or weed control at 200 ppm [4] | pest or weed control at 200 ppm [5] | pest or weed control at 12.5 ppm [6] | pest or weed control at 200 ppm [7]

CCN(C(=O)c1ccc(C#N)cc1)c1cccc(C(=O)Nc2c(Cl)cc(C(F)(C(F)(F)F)C(F)(F)F)cc2OC(F)F)c1OC [Compound 18]
≥ 80%: pest or weed control at 200 ppm [1] | pest or weed control at 200 ppm [2] | pest or weed control at 200 ppm [3] | pest or weed control at 200 ppm [4] | pest or weed control at 200 ppm [5] | pest or weed control at 12.5 ppm [6] | pest or weed control at 200 ppm [7]

CCN(C(=O)c1ccncc1)c1cccc(C(=O)Nc2c(Cl)cc(C(F)(C(F)(F)F)C(F)(F)F)cc2OC(F)F)c1F [Compound 19]
≥ 80%: pest or weed control at 200 ppm [1] | pest or weed control at 200 ppm [2] | pest or weed control at 200 ppm [3] | pest or weed control at 200 ppm [4] | pest or weed control at 200 ppm [5] | pest or weed control at 12.5 ppm [6] | pest or weed control at 200 ppm [7]

CCN(C(=O)c1ccncc1)c1cccc(C(=O)Nc2c(Cl)cc(C(F)(C(F)(F)F)C(F)(F)F)cc2OC(F)F)c1OC [Compound 20]
≥ 80%: pest or weed control at 200 ppm [1] | pest or weed control at 200 ppm [2] | pest or weed control at 200 ppm [3] | pest or weed control at 200 ppm [4] | pest or weed control at 200 ppm [5] | pest or weed control at 12.5 ppm [6] | pest or weed control at 200 ppm [7]

O=C(Nc1cccc(C(=O)Nc2c(Br)cc(C(F)(C(F)(F)F)C(F)(F)F)cc2OC(F)F)c1F)c1ccccc1Cl [Compound 21]
≥ 80%: pest or weed control at 200 ppm [1] | pest or weed control at 200 ppm [2] | pest or weed control at 200 ppm [3] | pest or weed control at 200 ppm [4] | pest or weed control at 200 ppm [5] | pest or weed control at 12.5 ppm [6] | pest or weed control at 200 ppm [7]

O=C(Nc1cccc(C(=O)Nc2c(Br)cc(C(F)(C(F)(F)F)C(F)(F)F)cc2OC(F)F)c1F)c1ccc([N+](=O)[O-])cc1 [Compound 22]
≥ 80%: pest or weed control at 200 ppm [1] | pest or weed control at 200 ppm [2] | pest or weed control at 200 ppm [3] | pest or weed control at 200 ppm [4] | pest or weed control at 200 ppm [5] | pest or weed control at 12.5 ppm [6] | pest or weed control at 200 ppm [7]

Cc1ccc(C(=O)Nc2cccc(C(=O)Nc3c(Br)cc(C(F)(C(F)(F)F)C(F)(F)F)cc3OC(F)F)c2F)cc1 [Compound 23]
≥ 80%: pest or weed control at 200 ppm [1] | pest or weed control at 200 ppm [2] | pest or weed control at 200 ppm [3] | pest or weed control at 200 ppm [4] | pest or weed control at 200 ppm [5] | pest or weed control at 12.5 ppm [6] | pest or weed control at 200 ppm [7]

O=C(Nc1cccc(C(=O)Nc2c(Br)cc(C(F)(C(F)(F)F)C(F)(F)F)cc2OC(F)F)c1F)c1cc(Cl)ccc1F [Compound 24]
≥ 80%: pest or weed control at 200 ppm [1] | pest or weed control at 200 ppm [2] | pest or weed control at 200 ppm [3] | pest or weed control at 200 ppm [4] | pest or weed control at 200 ppm [5] | pest or weed control at 12.5 ppm [6] | pest or weed control at 200 ppm [7]

O=C(Nc1cccc(C(=O)Nc2c(Br)cc(C(F)(C(F)(F)F)C(F)(F)F)cc2OC(F)F)c1F)c1ccc([N+](=O)[O-])cc1Cl [Compound 25]
≥ 80%: pest or weed control at 200 ppm [1] | pest or weed control at 200 ppm [2] | pest or weed control at 200 ppm [3] | pest or weed control at 200 ppm [4] | pest or weed control at 200 ppm [5] | pest or weed control at 12.5 ppm [6] | pest or weed control at 200 ppm [7]

O=C(Nc1cccc(C(=O)Nc2c(Br)cc(C(F)(C(F)(F)F)C(F)(F)F)cc2OC(F)F)c1F)c1ccc(OC(F)(F)F)cc1 [Compound 26]
≥ 80%: pest or weed control at 200 ppm [1] | pest or weed control at 200 ppm [2] | pest or weed control at 200 ppm [3] | pest or weed control at 200 ppm [4] | pest or weed control at 200 ppm [5] | pest or weed control at 12.5 ppm [6] | pest or weed control at 200 ppm [7]

O=C(Nc1cccc(C(=O)Nc2c(Br)cc(C(F)(C(F)(F)F)C(F)(F)F)cc2OC(F)F)c1F)c1ccc(F)c(C(F)(F)F)c1 [Compound 27]
≥ 80%: pest or weed control at 200 ppm [1] | pest or weed control at 200 ppm [2] | pest or weed control at 200 ppm [3] | pest or weed control at 200 ppm [4] | pest or weed control at 200 ppm [5] | pest or weed control at 12.5 ppm [6] | pest or weed control at 200 ppm [7]
